Laboratory results from BindingDB's records for doi:10.1021/jm00031a017 (University of California, 1994).

Tested on: recombinant HIV-2 protease
Assay: In vitro inhibition of recombinant HIV-2 protease expressed in Escherichia coli strain X90

For O=C(C=CC[N+]1([O-])CCC(O)(c2ccc(Cl)cc2)CC1)c1ccc(F)cc1 (stereo unspecified) [(E)-4-[4-(4-Chloro-phenyl)-4-hydroxy-1-oxy-piperidin-1-yl]-1-(4-fluoro-phenyl)-but-2-en-1-one], which IC50 is on record?
The IC50 was 40 µM.
